Data as given in patent US5488049A, “Method of treating learning and memory disorders using benzothiadiazide derivatives as nootropic agents” (FIDIA - Georgetown Institute for the Neuro-Sciences, priority 1993, dated 1996).
Entries after “also recorded” stand apart in the source; their conditions may differ. Read-outs that look alike come from different tables or passages of the source.

Assays:
AMPA receptor [1] = test: Fast application with double barrel pipette: AMPA receptor desensitization in outside-out patches from CAl hippocampal pyramidal neurons; format: cell-based, rat; conditions: 5 μM; 1 mM glutamate with 5 μM MK-801
Procedure: (§1) Young rats (12-16 days old) were decapitated and the brains quickly removed and placed in ice-cold Ringer solution. Thin slices of hippocampus (250 μm) were then cut with a vibratome slicer (Lancer, St. Louis, Mo.) and kept in Ringer solution at 37° C. until use. The experiments were carried out at room temperature with the slice totally submerged in a 1 ml volume recording chamber and under continuous perfusion with Ringer solution at a rate of 6 ml/min using an upright Hoffman modulation contrast microscope (Carl Zeiss, Germany) equipped with a 40×water immersion objective.
(§2) Media and drug application. The external Ringer solution contained (in mM): NaCl 120; KCl 3.1; CaCl2 2; MgCl2 1; KH2 PO4 1; NaHCO3 26; glucose 2.7; and it was continuously bubbled with 95% O2 and 5% CO2. Patch pipettes were filled with a solution containing (in mM): K-gluconate 140; MgCl2 1; ATP.Mg 2; EGTA 0.5; HEPES-KOH 10, pH 7.2. All the drugs under investigation were applied through the recording chamber perfusion system via parallel inputs having a common entry into the chamber. Agonist application was attained using two different systems that allowed a slow or a rapid solution change. Slow solution changes were used during recordings in whole-cell configuration and were obtained by exchanging the solution of the recording chamber within a few seconds. Fast solution changes were obtained with the use of the Y-shaped tubing method that allows complete exchange of solution in less than 10 ms, and is described in detail by Murase et al. (1989).
Briefly, a polyethylene tubing (1 mm i.d.) is bent in a U-shaped, and another fine polyethylene tubing (50 μi.d.) and 10 mm length) is inserted into a small hole in the U-tubing making the tip of the Y-tubing. Solutions are fed to the Y-tubing by gravity, and negative pressure facilitates exchange of the solution. The tip of the Y-tubing is positioned 100 μm from the cell investigated, and upon opening and closing of a valve that controls the negative pressure, it was possible to respectively change rapidly and apply a number of different test solutions. This method was used to apply agonists to excised outside-out membrane patches. More rapid drug applications were used to apply agonists to excised outside-out membrane patches, and were obtained through a double-barrelled pipette positioned close to the recording pipette containing the membrane patch. […] The agonist was applied for a period of 150 ms and the time necessary for a complete exchange of the solution was less than 1 ms as measured at the opening of a patch pipette containing different dilutions of the drugs under study. […]
Ionic currents in whole-cell configuration and outside-out excised membrane patches were monitored using the patch clamp technique (15). […]

[2] = system: AMPA receptors located on CAl pyramidal neuronal membranes; test: Slow bath perfusion, whole-cell: potentiation of glutamate-elicited current (with MK-801) in CAl pyramidal neurons of hippocampal slices; format: cell-based, rat
Procedure: as §1, §2
IDRA compounds (see above for structures) were first dissolved in 50 μl of DMSO, then […] of 1N NaOH and water (sufficient to reach a volume of 1 ml and a concentration of 10 mM). The final concentration was reached diluting the stock solution with Ringer solution.
(§3) Ionic currents in whole-cell configuration and outside-out excised membrane patches were monitored using the patch clamp technique (15).
The action diazoxide and the IDRA analogues were tested on the desensitization of AMPA receptors located on CAl pyramidal neuronal membranes in rat hippocampal slices. In order to evaluate whether the compounds under study increase the intensity of currents generated by the activation of non-NMDA receptors, these receptors were activated with glutamate in the presence of 5 μM MK-801 to block completely the ionic current elicited by glutamate acting on the NMDA receptor channels present in CAl pyramidal neurons. Three distinct methods of drug application were employed: 1) slow bath perfusion of agonist and drugs while recording in whole-cell mode (onset 30s); ii) fast application to outside-out patches of a fixed concentration of agonist with a double barrel pipette (onset<1 ms) in the presence and the absence of drugs; iii) fast perfusion (onset<6 ms) of increasing concentrations of agonist and drugs applied with the Y-tubing device to outside-out patches excised from neurons in brain slices and to voltage-clamped neurons in primary culture.
. The most efficacious (1 mM) derivative was IDRA21, which elicited a potentiation of 797±220% (n=4 cells), followed by IDRA 20 with a potentiation of 292±100% (n=4 cells) (FIG. 2). […]

rats [3] = test: Water maze: drug action on alprazolam-disrupted learning behavior in rats; format: in vivo, rat; conditions: for antagonism of alprazolam amnesic effect: doses equimolar to IDRA 21 / (+) IDRA 21
Procedure: Rats (male 250 g b.w.) were trained two days, once a day, in maze A (See insert A). […] Rats were exposed to a new maze configuration (Maze B) in 4 successive trials 15, 30, 45, and 60 min after the i.p. injections.
(§4) The water maze apparatus was adapted from Kant et al., (16), and consists of three concentric squares placed inside a 5 ft plastic pool (FIG. 6). The walls of the maze are 50 cm in height and are constructed from black opaque plastic to allow for tracking of the animal with an overhead camera. The alleys between the walls are 16 cm wide. In the center of each wall there is a removable doorway. The opening of doorways allows for the construction of mazes with an increasing number of potential error possibilities. (See diagram for Maze A and Maze B, FIG. 6). The maze is located in a room 10'×15' at constant temperature (18° C.) adjacent to the vivarium. The room is illuminated with overhead lights which also serve as spatial cues. Additional spatial cues are provided by the position of the investigator and a number of small white x's placed within specific locations upon the walls of the maze. The maze is filled with water (18°)C. to a depth of 25 cm.
(§5) Seven days prior to drug studies, rats were tested in Maze A (forced maze) on two consecutive days. Pretesting with the "forced" maze enabled the assessment of the animals' general motor, sensory and motivational abilities, and facilitated the exclusion of those animals unable to meet pretesting criteria. Performance was assessed by determining either swim time, errors committed, or path length measured with a computerized recording device. Errors are defined as whole body entry into alleys not leading directly to the exit platform (i.e., shaded portions in FIG. 6). Rats were excluded from the study if their swim path length and/or number of errors were two standard deviations above the mean […] of the entire group. During the first two trials, the rats were placed into the center of the maze and given a maximum of 180 secs to find the "exit platform" located at the "finish" (FIG. 6). The time required, the number of errors, and the path length were recorded for each trial. […] Rats meeting the criteria were randomly divided into groups. On the day of the experiment, a single trial was run (Maze A) in order to establish a baseline of performance. Following drug administration, the rats were again tested once on Maze A to establish a baseline of post-treatment performance. Following an additional interatrial interval of 30 min., the rats were tested on Maze B.
In these experiments, rats were trained in Maze B 15, 30, 45 and 60 min. after drug injection.

rats [4] = test: Water maze: drug action on learning and retention in rats; format: in vivo, rat; conditions: IDRA 21 15 mg/kg
Procedure: Rats (male, 250 g) were trained once a day in maze A (See FIG. 8B forced maze) for 2 consecutive days. The day of the experiment, after a first exposure to maze A, IDRA 21 (15 mg/kg) Aniracetam (500 mg/kg) or vehicle (cont) were administered per oral gavage and 30 min later the animals were exposed once again to Maze A. After 30 min of interatrial rest, rats were exposed to Maze B (see FIG. 8C open maze).
as §4, §5

AMPA receptor [5] = conditions: cited from earlier work
[6] = system: kainate-activated current; test: Selectivity: ionic current elicited by 20 μM kainate; format: cell-based, rat; conditions: for effect on kainate-activated current: 1 mM compound, 20 μM kainate; for effect on kainate responses at doses that decreased AMPA desensitization: all doses that decrease/inhibit AMPA desensitization
Procedure: as §1, §2, §3

animals and humans = conditions: refs 1-3 (NMDA antagonists); refs 7-9 (aniracetam); cited from earlier work
rats [7] = test: Water maze: drug action on alprazolam-disrupted learning behavior in rats; format: in vivo, rat; conditions: oral 5 mg/kg
[8] = system: EPSCs elicited in CAl pyramidal neurons; test: Excitatory postsynaptic currents (EPSCs) in CAl pyramidal neurons in hippocampal slices on stimulation of Schaffer collateral afferents; format: cell-based, rat; conditions: in vitro; compared with (+) IDRA 21
Procedure: as §1, §3
Traces were filtered at 3 KHz (-3 dB, 8-pole, lowpass Bessel filter, Frequency Devices), and stored in an LSI 11/73 computer (INDEC System, Sunnyvale, Calif.) after digitization (10 KHz) with a Data Translation analog to digital converter. Decay time constants of EPSC and glutamate-activated currents were determined from exponential fitting with the 11/73 system by using an entirely automated least-squares procedures (see Vicini and Schuetze, 1985, for further details). This method uses a Simplex algorithm (Caceci and Cacheris, 1984) to fit the data to either a single or double exponential equation of the form I(t)=If exp(-t/tauf)+Is exp(-t/taus), where If and Is are the amplitudes of the sIPSC fast and slow components, and tauf and taus are their respective decay time constants. Peak amplitudes were measured at the absolute maximum of the currents, taking into account the noise of the baseline and noise around the peak. Rise times were measured as the time elapsed from 20 to 80% of the peak amplitude of the response.
The action of nootropic drugs on the excitatory postsynaptic currents (EPSCs) elicited in CAl pyramidal neurons in hippocampal slices was investigated by stimulation of the Schaffer collateral afferents.

With `NS(=O)(=O)c1cccc2c1c([N+](=O)[O-])cc1[nH]c(=O)c(=O)[nH]c12` [NBQX, 1,2,3,4-tetrahydroxy-6-nitro-2,3-dioxo-benzo-[f]quinoxaline-7-sulfonamide, reference compound] the “block of transient peak and sustained plateau currents” value (AMPA receptor [1]) was “completely blocked”.
For `CC1Nc2cc(Cl)ccc2S(=O)(=O)N1` (stereo not shown) [IDRA 20, 6-chloro-3-methyl-3,4-dihydro-2H 1,2,4-benzothiadiazine S-S dioxide], the “potentiation of glutamate-elicited current” value ([2]; 1 mM compound, 50 μM glutamate, 5 μM MK-801, whole-cell, slow perfusion) was 292±100%.
In the case of `NS(=O)(=O)c1cc2c(cc1Cl)N=CNS2(=O)=O` [chlorothiazide, reference compound], the “antagonism of alprazolam amnesic effect” value (rats [3]) is reported as “inactive”.
For `COc1ccc(C(=O)N2CCCC2=O)cc1` [aniracetam], the “improvement of water maze performance” value (rats [4]; FIG. 8A, Aniracetam 500 mg/kg oral) is listed as “improve water performance in rats”, the “significance (P) of water maze performance vs control” value (rats [4]; Aniracetam 500 mg/kg per oral gavage, at least 5 rats) is listed as under 0.05 and the “AMPA receptor desensitization / modulation (background)” value (AMPA receptor [5]) is listed as “attenuating AMPA receptor spontaneous desensitization”. For the same compound, the “potency and duration of action (background)” value (AMPA receptor [5]) was “low potency and short lasting action”, the “AMPA receptor desensitization / modulation (background)” value (AMPA receptor [5]; listed as Aniracetam) was “decreases AMPA receptor desensitization” and the “effect on kainate-activated current” value [6] was “failed to potentiate the kainate-activated current”. For the same compound, the “effect on kainate responses at doses that decreased AMPA desensitization” value [6] was “failed to affect kainate responses” and the “effect on learning and memory (background)” value (from here on “effect on learning and memory”) (animals and humans) was “enhancing learning and memory (nootropic action) in animals”.
For `CNC1(c2ccccc2Cl)CCCCC1=O` (stereo not shown) [ketamine], the “effect on learning and memory” value (animals and humans) is given as “produce profound alterations in learning, disrupt memory consolidation and retrieval in animals and man”.
For `c1ccc(C2(N3CCCCC3)CCCCC2)cc1` [phencyclidine], the “effect on learning and memory” value (animals and humans) is given as “produce profound alterations in learning, disrupt memory consolidation and retrieval in animals and man”.
For `C[C@]12N[C@H](Cc3ccccc31)c1ccccc12` [MK-801], the “effect on learning and memory” value (animals and humans) is given as “produce profound alterations in learning, disrupt memory consolidation and retrieval in animals and man”.
For `CC1Nc2ccc(Cl)cc2S(=O)(=O)N1` (single isomer, unassigned; (-)) [(-) IDRA 21], the “biological activity of enantiomers (summary)” value (rats [3]; summary statement) was “inactive” and the “prevention of alprazolam-induced amnesia (enantiomers)” value (rats [7]) was “inactive”.
In the case of `O=S1(=O)NC(C2CC3C=CC2C3)Nc2ccc(Cl)cc21` (stereo not shown) [IDRA 23, 6-chloro-3-bicyclo[2.2.1]-hept-2-ene-3,4-dihydro-2H 1,2,4-benzothiadiazine S-S dioxide], the “efficacy compared with diazoxide (potentiation of glutamate current), in words” value ([2]; 1 mM, 50 μM glutamate) is reported as “either equally or less efficacious than diazoxide”.
For `CC1=NS(=O)(=O)c2cc(Cl)ccc2N1` [diazoxide, reference compound], the “antagonism of alprazolam amnesic effect” value (rats [3]) was “inactive; also recorded: unable to antagonize alprazolam-induced impairment of learning behavior”, the “effect on kainate-activated current” value [6] was “increased the current” and the “effect on kainate responses at doses that decreased AMPA desensitization” value [6] was “potently potentiated kainate responses”. For the same compound, the “efficacy in increasing excitatory synaptic strength in CAl pyramidal neurons” value [8] was “at least as efficacious as (+) IDRA 21”, the “potentiation of glutamate current, in words” value ([2]; 100 μM) was “inactive” and the “potentiation of glutamate-elicited current” value ([2]; 500 μM compound, mean±SE, N=4 cells) was 152±0.2%. The “maximal efficacy reached, in words” value ([2]; 1 mM, maximal dose testable without vehicle effect) was “failed to reach maximal efficacy at 1 mM” and the “potentiation of glutamate current, dose dependence” value ([2]; up to 1 mM) was “dose-dependent potentiation”.
